{"source": "patent US20190183798A1", "about": "“METHOD FOR TREATING TUMOR” (Johnpro Biotech Inc., priority 2016, published 2019)", "key": {"HepG2 cells [1]": {"tested_on": "HepG2 cells", "test": "Absorption of dextran, CT-B or transferrin in HepG2 cells under specified treatments (flow cytometry), with or without wortmannin", "type": "cell-based", "protocol": "In the treatment of wortmannin, an inhibitor of macropinocytosis pathway, the HepG2 cells were treated with phosphate-buffered saline (PBS) or wortmannin at 37° C. for 15 minutes. After the administration of dextran, the cells were applied with 37° C. treatment, 42° C. treatment or mEHT treatment for 1 hour.\nThe cells were analyzed by flow cytometry."}, "HepG2 cells [2]": {"tested_on": "HepG2 cells", "test": "Absorption/retention of lipo-dox in HepG2 cells under specified treatments (flow cytometry, confocal microscopy)", "details": "37° C., 42° C. and mEHT treatments compared"}}, "data": [{"molecule": "transferrin", "values": [{"measurement": "Absorption of transferrin by the cell compared with control group", "setting": "HepG2 cells [1]; all treatment groups (37° C., 42° C. and mEHT), 5 μg/ml transferrin", "value": "enhanced absorption"}]}, {"molecule": "COc1cccc2c1C(=O)c1c(O)c3c(c(O)c1C2=O)C[C@@](O)(C(=O)CO)C[C@@H]3O[C@H]1C[C@H](N)[C@H](O)[C@H](C)O1", "note": "[dox, doxorubicin]", "values": [{"measurement": "Enhancement of the absorption of dox without liposome encapsulation", "setting": "HepG2 cells [2]", "value": "no obvious difference among the tested treatments"}]}, {"molecule": "dextran", "values": [{"measurement": "Absorption of dextran to the cells compared with control group", "setting": "HepG2 cells [1]; all treatment groups (37° C., 42° C. and mEHT), 1 mg/ml dextran", "value": "enhanced absorption"}, {"measurement": "Fluorescence signal of dextran in cells treated with mEHT", "setting": "HepG2 cells [1]; mEHT treatment versus 37° C. and 42° C. treatments", "value": "highest fluorescence signals"}]}, {"molecule": "CT-B: particle about 100 nm used as tested drug for endocytosis uptake", "values": [{"measurement": "Absorption of CT-B by the cell compared with control group", "setting": "HepG2 cells [1]; all treatment groups (37° C., 42° C. and mEHT), 2 μg/ml CT-B", "value": "enhanced absorption"}]}]}
